Measured values taken from PubChem BioAssay (NCI).
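At the GI50, growth is halved. TGI denotes the concentration required for complete inhibition of growth.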 Residues, ends and D or L forms follow the SMILES beside them. *: point of attachment. Cbz = O=C(OCc1ccccc1)*

Columns and labels:
Experiment in all cases: NCI-60 cell line screen, 384-well format
[1] = system: BT-549 breast
[2] = system: EKVX NSCLC
[3] = system: HCT-116 colon
[4] = system: HOP-92 NSCLC
[5] = system: HT29 colon
[6] = system: M14 melanoma
[7] = system: NCI-H522 lung
[8] = system: SK-MEL-2 melanoma
[9] = system: SK-MEL-28 melanoma
[10] = system: SNB-19 CNS
[11] = system: SR leukemia
[12] = system: SW-620 colon
[13] = system: T-47D breast

SMILES | GI50 [1] | TGI [1] | GI50 [2] | TGI [2] | GI50 [3] | TGI [3] | GI50 [4] | TGI [4] | GI50 [5] | TGI [5] | GI50 [6] | TGI [6] | GI50 [7] | TGI [7] | GI50 [8] | TGI [8] | GI50 [9] | TGI [9] | GI50 [10] | TGI [10] | further results
Cc1[nH]nc2ncc(C(=O)N3CCC[C@H]3c3ccc(Cl)cc3)cc12 | 57700 nM | > 100000 nM | > 100000 nM | > 100000 nM | 37200 nM | > 100000 nM | > 55600 nM | > 89700 nM | > 100000 nM | > 100000 nM | > 100000 nM | > 100000 nM | 21300 nM | > 100000 nM | 25300 nM | 77500 nM | > 100000 nM | > 100000 nM | > 100000 nM | > 100000 nM | GI50 [11]: 11700 nM; TGI [11]: 25000 nM; GI50 [12]: 30900 nM; TGI [12]: > 79600 nM; GI50 [13]: 68200 nM; TGI [13]: > 100000 nM
CC(C)C[C@@H](C=O)NC(=O)[C@H](CC(C)C)NC(=O)[C@H](CC(C)C)NC(=O)OCc1ccccc1 (Cbz-Leu-Leu-Leu-aldehyde) | 164 nM | 305 nM | 222 nM | 534 nM | 146 nM | 296 nM | 179 nM | 328 nM | 178 nM | 335 nM | 179 nM | 324 nM | 85.8 nM | 225 nM | 134 nM | 268 nM | 142 nM | 280 nM | 161 nM | 340 nM | GI50 [11]: 24.7 nM; TGI [11]: 98 nM; GI50 [12]: 138 nM; TGI [12]: 275 nM; GI50 [13]: 169 nM; TGI [13]: 319 nM
